Measured values reported in US12378243B2, “Quinoline compounds as inhibitors of KRAS” (Incyte Corporation, priority 2021, dated 2025).

What was measured:
KRAS G12V mutant = KRAS G12V mutant (Homo sapiens, UniProt P01116, G12V); assay: GDP-GTP exchange assay, KRAS G12V; type: biochemical; settings: bodipy loaded KRAS G12V 2.5 nM; 3 hours incubation after adding GppNHp-SOS1 mixture; read-out: G12V_exchange
KRAS G12D = KRAS G12D (Homo sapiens, UniProt P01116, G12D); assay: GDP-GTP exchange assay, KRAS G12D; type: biochemical; settings: bodipy-loaded KRAS G12D 2.5 nM, GppNHp 500 uM, SOS1 150 nM; 4 hours pre-incubation, 2 hours incubation; read-out: G12D_exchange
KRAS G12D, sequence (P01116 1-188 isoform P01116-2 G12D): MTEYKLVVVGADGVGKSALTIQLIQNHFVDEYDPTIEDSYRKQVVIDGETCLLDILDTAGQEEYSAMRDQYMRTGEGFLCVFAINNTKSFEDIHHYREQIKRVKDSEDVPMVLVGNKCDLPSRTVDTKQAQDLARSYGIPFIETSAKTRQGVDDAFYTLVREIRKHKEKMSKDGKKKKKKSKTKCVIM
Summary of the method: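 Nucleotide exchange started with 1 mM GppNHp and 300 nM SOS1, then 2 h at ambient temperature. IC50 from four-parameter logistic fit with variable Hill slope.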

Caco-2 cells = assay: Caco2 assay (permeability, A-B); type: in vitro ADME; settings: Papp absorptive direction (A-B), test compound 50 μM, 120 minutes at 37° C.
Summary of the method: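 Caco-2 monolayers grown 22-25 days on Transwells, used only at TEER ≥300 Ω·cm^2. Compound at 50 μM in HBSS added apically, receiver HBSS with 4% BSA; 120 min at 37 °C. LCMS quantification; Papp from receiver flux slope, membrane area and initial donor amount.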

KRAS G12V mutant, sequence (P01116 1-188 isoform P01116-2 G12V): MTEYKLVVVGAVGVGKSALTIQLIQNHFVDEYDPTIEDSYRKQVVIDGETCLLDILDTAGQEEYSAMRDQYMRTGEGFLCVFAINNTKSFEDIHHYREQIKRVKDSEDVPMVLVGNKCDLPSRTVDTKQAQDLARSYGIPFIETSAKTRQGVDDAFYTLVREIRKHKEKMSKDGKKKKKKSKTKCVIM

Row | SMILES | IC50 (KRAS G12V mutant) | IC50 (KRAS G12D) | Caco-2 (Caco-2 cells; Table 3) | Caco-2 (Caco-2 cells; Table 4)
1 | Cc1cc2c(-n3cncn3)nc3c(F)c(-c4cc(O)cc5ccc(F)cc45)c(CCC#N)cc3c2n1[C@H]1[C@H]2CN[C@@H]1C2 [Example 26, 3-(1-((1R,4R,5S)-2-Azabicyclo[2.1.1]hexan-5-yl)-6-fluoro-7-(7-fluoro-3-hydroxynaphthalen-1-yl)-2-methyl-4-(1H-1,2,4-triazol-1-yl)-1H-pyrrolo[3,2-c]quinolin-8-yl)propanenitrile] | < 100 nM | < 100 nM | + (a Caco-2 value of 50.5) | –
2 | Cc1nc2c(F)c(-c3cccc(Cl)c3Cl)c(CCC#N)cc2c2c1cc([C@@H](C)NC(=O)[C@@H]1CCCO1)n2[C@H]1[C@H]2CN[C@@H]1C2 [Example 57, (2S)—N-((1R)-1-(1-((1R,4R,5S)-2-Azabicyclo[2.1.1]hexan-5-yl)-8-(2-cyanoethyl)-7-(2,3-dichlorophenyl)-6-fluoro-4-methyl-1H-pyrrolo[3,2-c]quinolin-2-yl)ethyl)tetrahydrofuran-2-carboxamide] | < 100 nM | < 100 nM | – | +++ (a Caco-2 value of >1)
3 | Cc1cc2c(nc(O[C@@H](C)[C@@H]3CCCN3C)c3cc(C)n([C@H]4[C@H]5CN[C@@H]4C5)c32)c(F)c1-c1cccc2cccc(C#N)c12 [Example 6, 8-(1-((1R,4R,5S)-2-Azabicyclo[2.1.1]hexan-5-yl)-6-fluoro-2,8-dimethyl-4-((S)-1-((S)-1-methylpyrrolidin-2-yl)ethoxy)-1H-pyrrolo[3,2-c]quinolin-7-yl)-1-naphthonitrile] | < 100 nM | < 100 nM | ++ (a Caco-2 value of >0.5 but ≤1) | –
4 | CCOc1nc2c(F)c(-c3cc(O)cc4ccccc34)c(CCC#N)cc2c2c1cc(C(C)N1CCOCC1=O)n2[C@H]1[C@H]2CN[C@@H]1C2 (stereo partly drawn) [Example 18, 3-(1-((1R,4R,5S)-2-azabicyclo[2.1.1]hexan-5-yl)-4-ethoxy-6-fluoro-7-(3-hydroxynaphthalen-1-yl)-2-(1-(3-oxomorpholino)ethyl)-1H-pyrrolo[3,2-c]quinolin-8-yl)propanenitrile] | < 100 nM | < 100 nM | + (a Caco-2 value of 50.5) | –
5 | Cc1cc2c(O[C@@H](C)[C@@H]3CCCN3C)nc3c(F)c(-c4cccc5cccc(C#N)c45)c(CCC#N)cc3c2n1[C@H]1[C@H]2CN[C@@H]1C2 (single isomer, unassigned) [Example 11] | < 100 nM | < 100 nM | + (a Caco-2 value of 50.5) | –
6 | [2H]C([2H])([2H])c1nc2c(F)c(-c3cccc(Cl)c3Cl)c(CCC#N)cc2c2c1cc([C@H]1CCCN1C(=O)N1CC(F)(F)C1)n2[C@H]1[C@H]2CN[C@@H]1C2 [Example 42, 3-(1-((1R,4R,5S)-2-Azabicyclo[2.1.1]hexan-5-yl)-7-(2,3-dichlorophenyl)-2-((R)-1-(3,3-difluoroazetidine-1-carbonyl)pyrrolidin-2-yl)-6-fluoro-4-(methyl-d3)-1H-pyrrolo[3,2-c]quinolin-8-yl)propanenitrile] | < 100 nM | < 100 nM | – | ++ (a Caco-2 value of >0.5 but ≤1)
7 | Cc1nc2c(F)c(-c3cccc(Cl)c3Cl)c(CCC#N)cc2c2c1cc([C@@H](C)NC(=O)c1cscn1)n2[C@H]1[C@H]2CN[C@@H]1C2 [Example 59, N-((1R)-1-(1-((1R,4R,5S)-2-Azabicyclo[2.1.1]hexan-5-yl)-8-(2-cyanoethyl)-7-(2,3-dichlorophenyl)-6-fluoro-4-methyl-1H-pyrrolo[3,2-c]quinolin-2-yl)ethyl)thiazole-4-carboxamide] | < 100 nM | < 100 nM | – | +++ (a Caco-2 value of >1)
8 | Cc1nc2c(F)c(-c3cccc(Cl)c3Cl)c(CCC#N)cc2c2c1cc([C@H]1C[C@H]3C[C@H]3N1C(=O)C1CC1)n2[C@H]1[C@H]2CN[C@@H]1C2 [Example 49, 3-(1-((1R,4R,5S)-2-Azabicyclo[2.1.1]hexan-5-yl)-2-((1R,3R,5R)-2-(cyclopropanecarbonyl)-2-azabicyclo[3.1.0]hexan-3-yl)-7-(2,3-dichlorophenyl)-6-fluoro-4-methyl-1H-pyrrolo[3,2-c]quinolin-8-yl)propanenitrile] | < 100 nM | < 100 nM | – | +++ (a Caco-2 value of >1)
9 | Cc1cc2c(O[C@@H](C)[C@@H]3CCCN3C)nc3c(F)c(-c4cc(O)cc(Cl)c4Cl)c(CCC#N)cc3c2n1[C@H]1[C@H]2CN[C@@H]1C2 (single isomer, unassigned) [Example 12] | < 100 nM | < 100 nM | + (a Caco-2 value of 50.5) | –
10 | C[C@H](c1cc2c(-c3ccc(C(C)(C)O)nc3)nc3c(F)c(-c4cccc5ccc(F)cc45)c(CCC#N)cc3c2n1[C@H]1[C@H]2CN[C@@H]1C2)n1ccncc1=O [Example 37, 3-(1-((1R,4R,5S)-2-Azabicyclo[2.1.1]hexan-5-yl)-6-fluoro-7-(7-fluoronaphthalen-1-yl)-4-(6-(2-hydroxypropan-2-yl)pyridin-3-yl)-2-((R)-1-(2-oxopyrazin-1(2H)-yl)ethyl)-1H-pyrrolo[3,2-c]quinolin-8-yl)propanenitrile] | < 100 nM | < 100 nM | – | +++ (a Caco-2 value of >1)
11 | Cc1cc2c(nc(O[C@@H](C)[C@@H]3CCCN3C)c3cc(CN4CCOCC4=O)n([C@H]4[C@H]5CN[C@@H]4C5)c32)c(F)c1-c1cccc2cccc(C#N)c12 (single isomer, unassigned) [Example 8] | < 100 nM | < 100 nM | + (a Caco-2 value of 50.5) | –
12 | Cc1nc2c(F)c(-c3cccc(Cl)c3Cl)c(CCC#N)cc2c2c1cc([C@@H](C)NC(=O)c1cccnn1)n2[C@H]1[C@H]2CN[C@@H]1C2 [Example 69, N-((1R)-1-(1-((1R,4R,5S)-2-azabicyclo[2.1.1]hexan-5-yl)-8-(2-cyanoethyl)-7-(2,3-dichlorophenyl)-6-fluoro-4-methyl-1H-pyrrolo[3,2-c]quinolin-2-yl)ethyl)pyridazine-3-carboxamide] | < 100 nM | < 100 nM | – | +++ (a Caco-2 value of >1)
